Values belong to the molecule of their own block, whether it stands above or below them.
How the values were obtained:
Carbonic anhydrase 9 = Carbonic anhydrase 9 (Homo sapiens, UniProt Q16790); assay: Inhibition of human CA9 preincubated for 15 mins prior to testing by phenol red-based stopped-flow CO2 hydration assay
Carbonic anhydrase 1 = Carbonic anhydrase 1 (Homo sapiens, UniProt P00915); assay: Inhibition of human CA1 preincubated for 15 mins prior to testing by phenol red-based stopped-flow CO2 hydration assay
Sequence of Carbonic anhydrase 1 (P00915 whole entry): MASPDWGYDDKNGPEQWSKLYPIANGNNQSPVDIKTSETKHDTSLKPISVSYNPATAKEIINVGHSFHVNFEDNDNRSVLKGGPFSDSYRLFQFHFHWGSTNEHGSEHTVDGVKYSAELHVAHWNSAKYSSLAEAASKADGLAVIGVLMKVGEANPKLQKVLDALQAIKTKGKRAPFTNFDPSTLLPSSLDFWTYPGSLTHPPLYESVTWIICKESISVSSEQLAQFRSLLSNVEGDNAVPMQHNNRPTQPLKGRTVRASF

MCF7 [1] = assay: Induction of apoptosis in human MCF7 cells assessed as late apoptotic cells at […] measured after 24 hrs by Annexin V-FITC/propidium iodide staining based flow cytometry (reference value: 0.29 %); format: functional; set-up: dose or concentration left out as unconfirmed
MDA-MB-231 [2] = assay: Induction of apoptosis in human MDA-MB-231 cells assessed as early apoptotic cells at […] measured after 24 hrs by Annexin V-FITC/propidium iodide staining based flow cytometry (reference value: 0.56 %); format: functional; set-up: dose or concentration left out as unconfirmed
MDA-MB-231 [3] = assay: Induction of apoptosis in human MDA-MB-231 cells assessed as late apoptotic cells at […] measured after 24 hrs by Annexin V-FITC/propidium iodide staining based flow cytometry (reference value: 0.24 %); format: functional; set-up: dose or concentration left out as unconfirmed
MCF7 [4] = assay: Antiproliferative activity against human MCF7 cells assessed as reduction in cell viability incubated for 48 hrs under chemically-induced hypoxic condition by MTT assay; conditions: MCF7, 48 h
MDA-MB-231 [5] = assay: Antiproliferative activity against human MDA-MB-231 cells assessed as reduction in cell viability incubated for 48 hrs under chemically-induced hypoxic condition by MTT assay; conditions: MDA-MB-231, 48 h
MDA-MB-231 [6] = assay: Induction of cell cycle arrest in human MDA-MB-231 cells assessed as decrease in G0/G1 cells at IC50 concentration incubated for 24 hrs by propidium iodide staining based flow cytometry (reference value: 56.42%); format: functional; set-up: scale not given: the % may be the effect or the level left
MCF7 [7] = assay: Induction of apoptosis in human MCF7 cells assessed as necrotic cells at […] measured after 24 hrs by Annexin V-FITC/propidium iodide staining based flow cytometry (reference value: 1.15 %); format: functional; set-up: dose or concentration left out as unconfirmed
MCF7 [8] = assay: Induction of cell cycle arrest in human MCF7 cells assessed as decrease in G0/G1 cells at IC50 concentration incubated for 24 hrs by propidium iodide staining based flow cytometry (reference value: 52.63%); format: functional; set-up: scale not given: the % may be the effect or the level left
MDA-MB-231 [9] = assay: Antiproliferative activity against human MDA-MB-231 cells assessed as reduction in cell viability incubated for 48 hrs under normaxic condition by MTT assay; conditions: MDA-MB-231, 48 h
MDA-MB-231 [10] = assay: Induction of apoptosis in human MDA-MB-231 cells assessed as necrotic cells at […] measured after 24 hrs by Annexin V-FITC/propidium iodide staining based flow cytometry (reference value: 0.64 %); format: functional; set-up: dose or concentration left out as unconfirmed
MCF7 [11] = assay: Induction of apoptosis in human MCF7 cells assessed as early apoptotic cells at […] measured after 24 hrs by Annexin V-FITC/propidium iodide staining based flow cytometry (reference value: 0.42 %); format: functional; set-up: dose or concentration left out as unconfirmed
MCF7 [12] = assay: Antiproliferative activity against human MCF7 cells assessed as reduction in cell viability incubated for 48 hrs under normaxic condition by MTT assay; conditions: MCF7, 48 h

Ki (Carbonic anhydrase 9): 813 nM
Compound: Cc1c(C(=O)/C=C/Nc2cccc(S(N)(=O)=O)c2)sc2nc3ccccc3n12

Ki (Carbonic anhydrase 9): 30.8 nM
Compound: Cc1c(C(=O)/C=C/Nc2cc(Cl)c(S(N)(=O)=O)cc2S(N)(=O)=O)sc2nc3ccccc3n12

Ki (Carbonic anhydrase 9): 73.1 nM
Compound: C/C(=N\Nc1ccc(S(N)(=O)=O)cc1)c1sc2nc3ccccc3n2c1C

Ki (Carbonic anhydrase 1): > 10000 nM
Ki (Carbonic anhydrase 9): 14500 nM
Compound: Cc1c(C(=O)/C=C/Nc2cccc(C(=O)O)c2)sc2nc3ccccc3n12

Ki (Carbonic anhydrase 9): 76.7 nM
Compound: Cc1c(NC(=O)Nc2cccc(S(N)(=O)=O)c2)sc2nc3ccccc3n12

IC50 (MCF7 [4]): 2360 nM
IC50 (MDA-MB-231 [5]): 4810 nM
Ki (Carbonic anhydrase 9): 6.2 nM
IC50 (MDA-MB-231 [9]): 9370 nM
IC50 (MCF7 [12]): 1510 nM
Compound: Cc1ccc(N/C=C/C(=O)c2sc3nc4ccccc4n3c2C)cc1S(N)(=O)=O
Activity (MCF7 [1]): 17.16%
Activity (MDA-MB-231 [2]): 7.21%
Activity (MDA-MB-231 [3]): 15.64%
Activity (MDA-MB-231 [6]): 26.47%
Activity (MCF7 [7]): 6.04%
Activity (MCF7 [8]): 34.36%
Activity (MDA-MB-231 [10]): 11.22%
Activity (MCF7 [11]): 3.71%

Ki (Carbonic anhydrase 9): 63.3 nM
Compound: Cc1c(NC(=O)Nc2ccc(S(N)(=O)=O)cc2)sc2nc3ccccc3n12

Ki (Carbonic anhydrase 9): 12.3 nM
Compound: Cc1c(C(=O)/C=C/NNc2ccc(S(N)(=O)=O)cc2)sc2nc3ccccc3n12

Ki (Carbonic anhydrase 9): 53.1 nM
Compound: Cc1c(NC(=O)NNC(=O)c2ccc(S(N)(=O)=O)cc2)sc2nc3ccccc3n12

IC50 (MCF7 [4]): 29400 nM
IC50 (MDA-MB-231 [5]): 6790 nM
Ki (Carbonic anhydrase 9): 5.5 nM
IC50 (MDA-MB-231 [9]): 9910 nM
IC50 (MCF7 [12]): 20400 nM
Compound: C/C(=N\NC(=O)c1ccc(S(N)(=O)=O)cc1)c1sc2nc3ccccc3n2c1C

Ki (Carbonic anhydrase 9): 55.9 nM
Compound: Cc1c(C(=O)/C=C/NCc2ccc(S(N)(=O)=O)cc2)sc2nc3ccccc3n12

Ki (Carbonic anhydrase 9): 830 nM
Compound: Cc1c(C(=O)/C=C/Nc2ccc(C(=O)O)cc2)sc2nc3ccccc3n12

Ki (Carbonic anhydrase 9): 36.6 nM
Compound: Cc1c(C(=O)/C=C/Nc2ccc(S(N)(=O)=O)cc2)sc2nc3ccccc3n12

Ki (Carbonic anhydrase 9): 29.7 nM
Compound: Cc1c(NC(=O)NCCc2ccc(S(N)(=O)=O)cc2)sc2nc3ccccc3n12

Ki (Carbonic anhydrase 9): 498 nM
Compound: Cc1c(C(=O)/C=C/Nc2ccccc2S(N)(=O)=O)sc2nc3ccccc3n12

Ki (Carbonic anhydrase 9): 20.5 nM
Compound: Cc1c(C(=O)/C=C/NCCc2ccc(S(N)(=O)=O)cc2)sc2nc3ccccc3n12

Ki (Carbonic anhydrase 9): 831 nM
Compound: Cc1c(NC(=O)Nc2ccccc2S(N)(=O)=O)sc2nc3ccccc3n12

IC50 (MCF7 [4]): 9380 nM
IC50 (MDA-MB-231 [5]): 15200 nM
Ki (Carbonic anhydrase 9): 9.7 nM
IC50 (MDA-MB-231 [9]): 14200 nM
IC50 (MCF7 [12]): 8070 nM
Compound: Cc1c(C(=O)/C=C/NNC(=O)c2ccc(S(N)(=O)=O)cc2)sc2nc3ccccc3n12

Source: ChEMBL document CHEMBL4706548, “3-Methylthiazolo[3,2-a]benzimidazole-benzenesulfonamide conjugates as novel carbonic anhydrase inhibitors endowed with anticancer activity: Design, synthesis, biological and molecular modeling studies” (Eur J Med Chem, 2020)
